Experimental data: patent publication US7344727B2, “Process for cleaning bovine teats” (H&S Chemical Company, Inc., priority 2002, dated 2008)

Legend:
[1] = tested on: bacteria on the udder and teat areas; assay: sanitizing the udder and teat areas with a solution of TCM; type: in vivo
Source text: This invention relates to the use of trichloromelamine as an active agent for sanitizing the udder and teat areas of cows. Like bleach TCM produces the Cl+ ion which is capable of killing a wide spectrum of bacteria. […] Solutions of sodium hypochlorite are generally not suitable for use on living tissue. […] The process of this invention is effected by spraying the udder and teat areas of a bovine with a solution of TCM. The process may be further effected by dipping the udder and teat areas in a solution of TCM. The process of this invention effectively kills all bacteria as may be on the udder and teat areas of a bovine in less than one minute.

[2] = bovine, in vivo
Source text: This invention relates to the use of trichloromelamine as an active agent for sanitizing the udder and teat areas of cows. Like bleach TCM produces the Cl+ ion which is capable of killing a wide spectrum of bacteria. […] Solutions of sodium hypochlorite are generally not suitable for use on living tissue.

Substance: trichloromelamine [TCM]
- residual effect on the udder and teat areas ([1]; residual TCM left after treatment): inhibits future bacterial contamination
- time to kill the troublesome bacteria ([1]; soft living tissue treated in accordance with the invention): killed in a matter of seconds
- effect on treated living tissue [2]: not adversely affected
